Data taken from US8030498B2, “Benzoylpyrazole compounds and herbicides containing them” (Ishihara Sangyo Kaisha, Ltd., priority 2005, dated 2011).

How the values were obtained:
[1] = tested on: barnyardgrass (Echinochloa crus-galli L.); assay: Test Example 1: foliar treatment, growth inhibition rate, barnyardgrass; assay type: in vivo; details: visually observed 17th to 23rd day after application
From the text: (§1) Upland field soil was put into a 1/170,000 hectare pot, and seeds of various plants were sown. When the respective plants reached predetermined leaf stage ((1) barnyardgrass (Echinochloa crus-galli L.); 0.8 to 2.5 leaf stage, (2) crabgrass (Digitaria sanguinalis L.): 0.5 to 3.0 leaf stage, (3) greenfoxtail (Setaria viridis L.): 1.0 to 3.0 leaf stage, (4) redroot pigweed (Amaranthus retroflexus L.): cotyledon stage to 2.0 leaf stage, (5) prickly sida (Sida spinosa L.): cotyledon stage to 1.1 leaf stage, (6) velvetleaf (Abutilon theophrasti MEDIC.): cotyledon stage to 1.5 leaf stage, (7) rice (Oryza sativa L.): 1.0 to 2.5 leaf stage, (8) wheat (Triticum spp.): 1.7 to 3.4 leaf stage, (9) corn (Zea mays L.): 2.0 to 3.5 leaf stage, and (10) soybean (Glycine max Merr.): primary leaf stage to 0.3 leaf stage), wettable powders or emulsifiable concentrates of the compounds of the present invention prepared in accordance with a conventional preparation method, were weighed so that the active ingredients became the prescribed amounts, and diluted with water in an amount corresponding to 500 liter per 1 hectare. 0.1 vol % of an agricultural spreader was further added to the respective diluted liquids, followed by foliar treatment with a small sprayer.
(§2) On the 17th to 23rd day after application, the state of growth of the respective plants was visually observed, and the herbicidal effect was evaluated in accordance with a growth inhibition rate (%) of 0 (equivalent to the non-treated area) to 100% (complete kill).

[2] = tested on: crabgrass (Digitaria sanguinalis L.); assay: Test Example 1: foliar treatment, growth inhibition rate, crabgrass; assay type: in vivo; details: visually observed 17th to 23rd day after application
From the text: as §1, §2

[3] = tested on: greenfoxtail (Setaria viridis L.); assay: Test Example 1: foliar treatment, growth inhibition rate, greenfoxtail; assay type: in vivo; details: visually observed 17th to 23rd day after application
From the text: as §1, §2

[4] = tested on: redroot pigweed (Amaranthus retroflexus L.); assay: Test Example 1: foliar treatment, growth inhibition rate, redroot pigweed; assay type: in vivo; details: visually observed 17th to 23rd day after application
From the text: as §1, §2

[5] = tested on: prickly sida (Sida spinosa L.); assay: Test Example 1: foliar treatment, growth inhibition rate, prickly sida; assay type: in vivo; details: visually observed 17th to 23rd day after application
From the text: as §1, §2

[6] = tested on: velvetleaf (Abutilon theophrasti MEDIC.); assay: Test Example 1: foliar treatment, growth inhibition rate, velvetleaf; assay type: in vivo; details: visually observed 17th to 23rd day after application
From the text: as §1, §2

rice (Oryza sativa L.) = assay: Test Example 1: foliar treatment, growth inhibition rate, rice; assay type: in vivo; details: visually observed 17th to 23rd day after application
From the text: as §1, §2

wheat (Triticum spp.) = assay: Test Example 1: foliar treatment, growth inhibition rate, wheat; assay type: in vivo; details: visually observed 17th to 23rd day after application
From the text: as §1, §2

corn (Zea mays L.) = assay: Test Example 1: foliar treatment, growth inhibition rate, corn; assay type: in vivo; details: visually observed 17th to 23rd day after application
From the text: as §1, §2

[7] = tested on: soybean (Glycine max Merr.); assay: Test Example 1: foliar treatment, growth inhibition rate, soybean; assay type: in vivo; details: visually observed 17th to 23rd day after application
From the text: as §1, §2

crabgrass = assay: Test Example 2: soil application on the day after sowing, growth inhibition rate, crabgrass; assay type: in vivo, Digitaria sanguinalis L.; details: 250 g/ha active ingredient, observed on 19th to 24th day
From the text: (§3) Upland field soil was put into a 1/170,000 hectare pot, and seeds of various plants (barnyardgrass, crabgrass, greenfoxtail, redroot pigweed, prickly sida, velvetleaf, rice, wheat, corn and soybean) were sown. On the day after sowing, wettable powders or emulsifiable concentrates of the compounds of the present invention prepared in accordance with a conventional preparation method, were weighed so that the active ingredients became the prescribed amounts, and diluted with water in an amount corresponding to 500 liter per 1 hectare, followed by soil application with a small sprayer. On the 19th to 24th day after the application, the state of growth of the respective plants was visually observed, and the herbicidal effect was evaluated in accordance with a growth inhibition rate (%) of from 0 (equivalent to the non-treated area) to 100% (complete kill).

redroot pigweed = assay: Test Example 2: soil application on the day after sowing, growth inhibition rate, redroot pigweed; assay type: in vivo, Amaranthus retroflexus L.; details: 250 g/ha active ingredient, observed on 19th to 24th day
From the text: as §3

velvetleaf = assay: Test Example 2: soil application on the day after sowing, growth inhibition rate, velvetleaf; assay type: in vivo, Abutilon theophrasti MEDIC.; details: 250 g/ha active ingredient, observed on 19th to 24th day
From the text: as §3

corn = assay: Test Example 2: soil application on the day after sowing, growth inhibition rate, corn; assay type: in vivo, Zea mays L.; details: 250 g/ha active ingredient, observed on 19th to 24th day
From the text: as §3

Compound	Growth inhibition rate (%) Barnyardgrass ([1]; 31 g/ha active ingredient)	Growth inhibition rate (%) Crabgrass ([2]; 31 g/ha active ingredient)	Growth inhibition rate (%) Greenfoxtail ([3]; 31 g/ha active ingredient)	Growth inhibition rate (%) redroot pigweed ([4]; 31 g/ha active ingredient)	Growth inhibition rate (%) Prickly sida ([5]; 31 g/ha active ingredient)	Growth inhibition rate (%) Velvetleaf ([6]; 31 g/ha active ingredient)	Growth inhibition rate (%) Rice (rice (Oryza sativa L.); 31 g/ha active ingredient)	Growth inhibition rate (%) Wheat (wheat (Triticum spp.); 31 g/ha active ingredient)	Growth inhibition rate (%) Corn (corn (Zea mays L.); 31 g/ha active ingredient)	Growth inhibition rate (%) Soybean ([7]; 31 g/ha active ingredient)	Growth inhibition rate (%) Crabgrass (crabgrass)	Growth inhibition rate (%) redroot pigweed (redroot pigweed)	Growth inhibition rate (%) Velvetleaf (velvetleaf)	Growth inhibition rate (%) Corn (corn)	further results
CCSC(=O)Oc1c(C(=O)c2ccc(S(C)(=O)=O)c(Cl)c2C)cnn1CC [compound 71]	70%	40%	60%	70%	60%	60%	60%	10%	0%	60%					
CCOCCOc1c(S(C)(=O)=O)ccc(C(=O)c2cnn(C)c2OC(=O)SCC)c1C [compound 77]	98%	98%	98%	95%	70%	80%	70%	0%	10%	95%	95%	90%	40%	0%	
CCSC(=O)Oc1c(C(=O)c2ccc(S(C)(=O)=O)c(C=CC#N)c2C)cnn1C [compound 229]															Growth inhibition rate (%) Barnyardgrass ([1]; 63 g/ha active ingredient): 100%; Growth inhibition rate (%) Crabgrass ([2]; 63 g/ha active ingredient): 100%; Growth inhibition rate (%) Greenfoxtail ([3]; 63 g/ha active ingredient): 100%; Growth inhibition rate (%) redroot pigweed ([4]; 63 g/ha active ingredient): 100%; Growth inhibition rate (%) Prickly sida ([5]; 63 g/ha active ingredient): 98%; Growth inhibition rate (%) Velvetleaf ([6]; 63 g/ha active ingredient): 100%; Growth inhibition rate (%) Rice (rice (Oryza sativa L.); 63 g/ha active ingredient): 95%; Growth inhibition rate (%) Wheat (wheat (Triticum spp.); 63 g/ha active ingredient): 50%; Growth inhibition rate (%) Corn (corn (Zea mays L.); 63 g/ha active ingredient): 60%; Growth inhibition rate (%) Soybean ([7]; 63 g/ha active ingredient): 98%
CCSC(=O)Oc1c(C(=O)c2ccc(S(C)(=O)=O)c(CS(C)(=O)=O)c2C)cnn1C [compound 72]	80%	50%	70%	60%	60%	60%	50%	0%	10%	70%	0%	50%	30%	0%	
CCSC(=O)Oc1c(C(=O)c2ccc(S(C)(=O)=O)c(CCCOC)c2C)cnn1C [compound 226]	100%	95%	95%	95%	70%	80%	100%	0%	0%	100%					
CCSC(=O)Oc1c(C(=O)c2ccc(S(C)(=O)=O)c(OCCCl)c2C)cnn1C [compound 78]	60%	70%	60%	60%	60%	65%	10%	0%	0%	70%	95%	80%	50%	0%	
CCSC(=O)Oc1c(C(=O)c2ccc(S(C)(=O)=O)c(CCC#N)c2C)cnn1C [compound 230]															Growth inhibition rate (%) Barnyardgrass ([1]; 63 g/ha active ingredient): 100%; Growth inhibition rate (%) Crabgrass ([2]; 63 g/ha active ingredient): 100%; Growth inhibition rate (%) Greenfoxtail ([3]; 63 g/ha active ingredient): 100%; Growth inhibition rate (%) redroot pigweed ([4]; 63 g/ha active ingredient): 100%; Growth inhibition rate (%) Prickly sida ([5]; 63 g/ha active ingredient): 80%; Growth inhibition rate (%) Velvetleaf ([6]; 63 g/ha active ingredient): 95%; Growth inhibition rate (%) Rice (rice (Oryza sativa L.); 63 g/ha active ingredient): 95%; Growth inhibition rate (%) Wheat (wheat (Triticum spp.); 63 g/ha active ingredient): 40%; Growth inhibition rate (%) Corn (corn (Zea mays L.); 63 g/ha active ingredient): 0%; Growth inhibition rate (%) Soybean ([7]; 63 g/ha active ingredient): 100%
